Columns and labels:
Staphylococcus aureus [1] = assay: Antimicrobial activity against methicillin-susceptible Staphylococcus aureus ATCC25923 measured after 24 hrs by CLSI protocol based microdilution method; assay type: functional
Enterococcus faecalis = assay: Antimicrobial activity against Enterococcus faecalis ATCC29212 measured after 24 hrs by CLSI protocol based microdilution method; assay type: functional
[2] = target: T1, Enoyl-[acyl-carrier-protein] reductase [NADPH] FabI (Staphylococcus aureus) (UniProt Q6GI75); assay: Inhibition of N-terminal his 6 tagged Staphylococcus aureus Fabi (1 to […] residues) expressed in Escherichia coli BL21 at 10 uM incubated for 30 mins in presence of NADPH by fluorescence based microplate reader analysis relative to control
T1 sequence (whole entry): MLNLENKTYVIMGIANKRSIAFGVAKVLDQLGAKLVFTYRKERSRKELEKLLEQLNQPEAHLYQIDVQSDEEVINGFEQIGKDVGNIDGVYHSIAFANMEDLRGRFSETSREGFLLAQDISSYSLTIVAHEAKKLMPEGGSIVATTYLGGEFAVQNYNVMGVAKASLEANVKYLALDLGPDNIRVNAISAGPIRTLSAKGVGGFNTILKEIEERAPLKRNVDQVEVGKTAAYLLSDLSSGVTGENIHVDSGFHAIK

Escherichia coli = assay: Antimicrobial activity against Escherichia coli ATCC25922 measured after 24 hrs by CLSI protocol based microdilution method; assay type: functional
Staphylococcus aureus [3] = assay: Antimicrobial activity against […] Staphylococcus aureus ATCC43300 measured after 24 hrs by CLSI protocol based microdilution method; assay type: functional
Pseudomonas aeruginosa = assay: Antimicrobial activity against Pseudomonas aeruginosa PAO1 measured after 24 hrs by CLSI protocol based microdilution method; assay type: functional
Staphylococcus aureus [4] = assay: Antimicrobial activity against […] Staphylococcus aureus ATCC33591 measured after 24 hrs by CLSI protocol based microdilution method; assay type: functional
Staphylococcus aureus [5] = assay: Antimicrobial activity against methicillin-susceptible Staphylococcus aureus ATCC29213 measured after 24 hrs by CLSI protocol based microdilution method; assay type: functional
Acinetobacter baumannii = assay: Antimicrobial activity against Acinetobacter baumannii ATCC19606 measured after 24 hrs by CLSI protocol based microdilution method; assay type: functional
[6] = target: T1, Enoyl-[acyl-carrier-protein] reductase [NADPH] FabI (Staphylococcus aureus); assay: Inhibition of N-terminal his 6 tagged Staphylococcus aureus Fabi (1 to […] residues) expressed in Escherichia coli BL21 at 1 uM incubated for 30 mins in presence of NADPH by fluorescence based microplate reader analysis relative to control
Candida albicans = assay: Antimicrobial activity against Candida albicans SC5314 measured after 48 hrs by CLSI protocol based microdilution method; assay type: functional
Enterococcus faecium = assay: Antimicrobial activity against Enterococcus faecium ATCC19434 measured after 24 hrs by CLSI protocol based microdilution method; assay type: functional
Staphylococcus aureus [7] = assay: Antimicrobial activity against […] Staphylococcus aureus NRS271 measured after 24 hrs by CLSI protocol based microdilution method; assay type: functional
Staphylococcus aureus [8] = assay: Antimicrobial activity against […] Staphylococcus aureus USA300 measured after 24 hrs by CLSI protocol based microdilution method; assay type: functional

Cn1c(C2CC(=O)N(c3ccccc3)C2)nc2ccccc21 (stereo not given)
> 32 µg/mL: MIC (Staphylococcus aureus [1]) | MIC (Enterococcus faecalis) | MIC (Escherichia coli) | MIC (Staphylococcus aureus [3]) | MIC (Pseudomonas aeruginosa) | MIC (Staphylococcus aureus [4]) | MIC (Staphylococcus aureus [5]) | MIC (Acinetobacter baumannii) | MIC (Candida albicans) | MIC (Enterococcus faecium) | MIC (Staphylococcus aureus [7]) | MIC (Staphylococcus aureus [8])
56.2%: inhibition [2]
8.9%: inhibition [6]

O=C1C=CC(=O)c2ccccc21
> 70%: inhibition [2]

CN(C)c1ccc2nc3c(C(=O)O)cc(O)c(O)c3[o+]c2c1
> 70%: inhibition [2]

Cn1c(C2CC(=O)N(c3ccc(Cl)cc3)C2)nc2ccccc21 (stereo not given)
35.7%: inhibition [2]
2.2%: inhibition [6]
> 32 µg/mL: MIC (Staphylococcus aureus [1]) | MIC (Enterococcus faecalis) | MIC (Escherichia coli) | MIC (Staphylococcus aureus [3]) | MIC (Pseudomonas aeruginosa) | MIC (Staphylococcus aureus [4]) | MIC (Staphylococcus aureus [5]) | MIC (Acinetobacter baumannii) | MIC (Candida albicans) | MIC (Enterococcus faecium) | MIC (Staphylococcus aureus [7]) | MIC (Staphylococcus aureus [8])

Oc1ccc2ccccc2c1SSc1c(O)ccc2ccccc12
> 70%: inhibition [2]

CC(=O)c1ccc(N2CC(c3nc4ccccc4n3C)CC2=O)cc1 (stereo not given)
10.1%: inhibition [2]
> 32 µg/mL: MIC (Staphylococcus aureus [1]) | MIC (Enterococcus faecalis) | MIC (Escherichia coli) | MIC (Staphylococcus aureus [3]) | MIC (Pseudomonas aeruginosa) | MIC (Staphylococcus aureus [4]) | MIC (Staphylococcus aureus [5]) | MIC (Acinetobacter baumannii) | MIC (Candida albicans) | MIC (Enterococcus faecium) | MIC (Staphylococcus aureus [7]) | MIC (Staphylococcus aureus [8])
2.8%: inhibition [6]

Cc1cccc(C(=O)NCCNC(=O)c2nc3ccccc3n2C)c1C
3.7%: inhibition [2]
> 32 µg/mL: MIC (Staphylococcus aureus [1]) | MIC (Enterococcus faecalis) | MIC (Escherichia coli) | MIC (Staphylococcus aureus [3]) | MIC (Pseudomonas aeruginosa) | MIC (Staphylococcus aureus [4]) | MIC (Staphylococcus aureus [5]) | MIC (Acinetobacter baumannii) | MIC (Candida albicans) | MIC (Enterococcus faecium) | MIC (Staphylococcus aureus [7]) | MIC (Staphylococcus aureus [8])
1.7%: inhibition [6]

Cn1c(CCC(=O)NCCNC(=O)Cc2ccccc2)nc2ccccc21
3.6%: inhibition [6]
21.4%: inhibition [2]
> 32 µg/mL: MIC (Staphylococcus aureus [1]) | MIC (Enterococcus faecalis) | MIC (Escherichia coli) | MIC (Staphylococcus aureus [3]) | MIC (Pseudomonas aeruginosa) | MIC (Staphylococcus aureus [4]) | MIC (Staphylococcus aureus [5]) | MIC (Acinetobacter baumannii) | MIC (Candida albicans) | MIC (Enterococcus faecium) | MIC (Staphylococcus aureus [7]) | MIC (Staphylococcus aureus [8])

COCCCOc1ccc(C)c(C[S+]([O-])c2nc3ccccc3[nH]2)n1 (stereo not given)
> 70%: inhibition [2]

Cn1c(CCC(=O)NCc2ccccc2)nc2ccccc21
7.9%: inhibition [6]
6.1%: inhibition [2]
> 32 µg/mL: MIC (Staphylococcus aureus [1]) | MIC (Enterococcus faecalis) | MIC (Escherichia coli) | MIC (Staphylococcus aureus [3]) | MIC (Pseudomonas aeruginosa) | MIC (Staphylococcus aureus [4]) | MIC (Staphylococcus aureus [5]) | MIC (Acinetobacter baumannii) | MIC (Candida albicans) | MIC (Enterococcus faecium) | MIC (Staphylococcus aureus [7]) | MIC (Staphylococcus aureus [8])

Cn1c(C2CC(=O)N(c3ccc(Br)c(Br)c3)C2)nc2ccccc21 (stereo not given)
45.4%: inhibition [2]
> 32 µg/mL: MIC (Staphylococcus aureus [1]) | MIC (Enterococcus faecalis) | MIC (Escherichia coli) | MIC (Staphylococcus aureus [3]) | MIC (Pseudomonas aeruginosa) | MIC (Staphylococcus aureus [4]) | MIC (Staphylococcus aureus [5]) | MIC (Acinetobacter baumannii) | MIC (Candida albicans) | MIC (Enterococcus faecium) | MIC (Staphylococcus aureus [7]) | MIC (Staphylococcus aureus [8])
4.8%: inhibition [6]

COc1cccc(N2CC(c3nc4ccccc4n3C)CC2=O)c1OC (stereo not given)
45.2%: inhibition [2]
> 32 µg/mL: MIC (Staphylococcus aureus [1]) | MIC (Enterococcus faecalis) | MIC (Escherichia coli) | MIC (Staphylococcus aureus [3]) | MIC (Pseudomonas aeruginosa) | MIC (Staphylococcus aureus [4]) | MIC (Staphylococcus aureus [5]) | MIC (Acinetobacter baumannii) | MIC (Candida albicans) | MIC (Enterococcus faecium) | MIC (Staphylococcus aureus [7]) | MIC (Staphylococcus aureus [8])
3.8%: inhibition [6]

Cn1c(C2CC(=O)N(Cc3ccccc3)C2)nc2ccccc21 (stereo not given)
27.9%: inhibition [2]
4.6%: inhibition [6]
> 32 µg/mL: MIC (Staphylococcus aureus [1]) | MIC (Enterococcus faecalis) | MIC (Escherichia coli) | MIC (Staphylococcus aureus [3]) | MIC (Pseudomonas aeruginosa) | MIC (Staphylococcus aureus [4]) | MIC (Staphylococcus aureus [5]) | MIC (Acinetobacter baumannii) | MIC (Candida albicans) | MIC (Enterococcus faecium) | MIC (Staphylococcus aureus [7]) | MIC (Staphylococcus aureus [8])

Source: ChEMBL document CHEMBL5500393, “Discovery and Optimization of Novel SaFabI Inhibitors as Specific Therapeutic Agents for MRSA Infection” (J Med Chem, 2024)
